{
  "source": "patent US8877241B2",
  "about": "(Egalet Ltd., priority 2003, dated 2014)",
  "origin": "cited, not measured here",
  "details": "single dose of 10 mg oral morphine, plain tablet composition",
  "data": [
    {"smiles": "CN1CC[C@]23c4c5ccc(O)c4O[C@H]2[C@@H](O)C=C[C@H]3[C@H]1C5", "note": "[morphine]", "values": [
      {"measurement": "average duration of action", "result": "4 to 5", "unit": "h"}
    ]}
  ]
}
